Consider one compound from article PMC5944028, “Nonclinical and clinical pharmacological characterization of the potent and selective cathepsin K inhibitor MIV-711” (Journal of Translational Medicine, 2018).

Molecules are shown by their SMILES.

In one assay the target is T1, human cathepsin H (Homo sapiens, UniProt P09668).
T1 construct: purchased Athens Research Technology
The assay is described as follows: Enzyme assay, human cathepsin H. In kind it is biochemical. From the text: (§1) Recombinant cathepsin K enzymes from all species were expressed in E. coli, purified and activated. Human cathepsin F and cathepsin S were expressed in Baculovirus, purified and activated. Purified human cathepsins B and H (Athens Research Technology), cathepsin L (Calbiochem), and cathepsin V (R & D Systems) were purchased.
(§2) H-D-Ala_Leu-Lys-AMC was used as the substrate in assays of cathepsin K from non-rodent species (human, dog, rabbit and guinea pig), and Z-Leu-Arg-AMC was used as the substrate in assays of cathepsin K from rodent species (mouse and rat). […]
(§3) Assays were carried out in white polystyrene 96-well plates in a final volume of 100 µL. […] Plates were read in a Fluoroskan Ascent (Thermo Labsystems, Helsinki, Finland) in kinetic mode, with excitation and emission filters of 390 and 460 nm, respectively. Rates were determined by linear regression of the fluorescence/time data in Excel. Rates were fitted by non-linear regression to either the competitive inhibition equation, with the substrate concentration fixed at the value in the assay and the KM fixed to the value previously determined, or the IC50 equation using GraphPad Prism (GraphPad, version 6, San Diego, USA) to obtain Ki or IC50 values, respectively.

In the next assay the target is T2, human cathepsin S (Homo sapiens, UniProt P25774).
T2 construct: made in house
T2 sequence (P25774 115-331): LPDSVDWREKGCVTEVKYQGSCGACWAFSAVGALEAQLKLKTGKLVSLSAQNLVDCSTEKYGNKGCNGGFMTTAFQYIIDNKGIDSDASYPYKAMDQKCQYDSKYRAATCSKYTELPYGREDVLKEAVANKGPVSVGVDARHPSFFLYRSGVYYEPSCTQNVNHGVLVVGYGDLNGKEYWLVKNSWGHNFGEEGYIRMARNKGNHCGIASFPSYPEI
The assay is described as follows: Enzyme assay, human cathepsin S. In kind it is biochemical. Conditions: geometric mean.
Description: as §1, §2, §3

In another assay the target is T3, dog cathepsin K (Canis lupus familiaris, UniProt Q3ZKN1).
T3 construct: made in house; host or cells: E. coli
T3 sequence (Q3ZKN1 116-330): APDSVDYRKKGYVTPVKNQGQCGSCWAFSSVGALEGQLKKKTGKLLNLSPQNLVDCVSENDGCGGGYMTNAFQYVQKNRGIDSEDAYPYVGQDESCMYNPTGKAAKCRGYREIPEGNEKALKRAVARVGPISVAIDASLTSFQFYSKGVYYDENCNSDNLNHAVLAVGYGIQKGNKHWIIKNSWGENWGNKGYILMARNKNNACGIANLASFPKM
The assay is described as follows: Recombinant enzyme assay, dog cathepsin K. In kind it is biochemical. Conditions: geometric mean.
Description: as §1, §2, §3

A further assay deals with guinea pig cathepsin K. The assay is described as follows: Recombinant enzyme assay, guinea pig cathepsin K. In kind it is biochemical. Conditions: geometric mean.
Description: as §1, §2, §3

The next assay has as its system urine CTX-I. The assay is described as follows: Monkey urine CTX-I, multiple doses. In kind it is in vivo, cynomolgus monkeys (Macaca fascicularis). The procedure: (§4) Biomarkers such as NTX-I (bone resorption) and CTX-II (cartilage degradation) are typically measured in urine. Additional experiments in which urine was collected were therefore performed. In these experiments, four cynomolgus monkeys (Macaca fascicularis) were used (Aptuit, Edinburgh, UK). The animals were healthy young females weighing 3.5–4 kg. Animals were dosed with vehicle or MIV-711 via oral gavage at a dose volume of 5 mL/kg between 7:30 and 8:30 a.m. Animals first received vehicle via oral gavage for five consecutive days. After a washout period, the animals then received MIV-711 (30 µmol/kg) via oral gavage for five consecutive days.
(§5) Urine was collected between 8–12 a.m., 12 a.m.–4 p.m. and 4 p.m.–8 a.m. on Day 1 and Day 5 of respective treatment. Biomarkers were measured in each urine sample, corrected for creatinine, and the mean value of the three samples on Day 1 and Day 5 was calculated. The effect of MIV-711 was evaluated by comparing biomarkers in urine samples collected on Day 1 and Day 5 with respective vehicle sample. [drawing 3]
(§6) The quantification of CTX-I in monkey plasma samples and human serum samples was performed using a commercially available kit (Serum CrossLaps ELISA, IDS Nordic, Herlev, Denmark). The levels of CTX-I in monkey urine samples were measured using a commercially available kit (Urine BETA CrossLaps ELISA, IDS Nordic). […]

The test system of another assay is urine NTX-I. The assay is described as follows: Monkey urine NTX-I, multiple doses. In kind it is in vivo, cynomolgus monkeys (Macaca fascicularis). The method, then: as §4, §5, §6
Another assay relates to serum CTX-I. The assay is described as follows: Human serum CTX-I, single ascending dose study. In kind it is in vivo, human healthy subjects. From the text: Twenty-seven healthy male and female subjects (18 male and 9 female) of any ethnic origin (24 White, 1 Asian, 1 Black, 1 Black/Caribbean White), aged between 19 and 64 years, and with a body mass index (BMI) between 18.0 and 32.0 kg/m^2, were selected for this study. Inclusion criteria for enrollment followed the standard practice for first-in-man studies.
This was a randomized, double-blind, placebo-controlled, sequential, single-ascending dose study conducted at a single site with the objective of evaluating the safety, tolerability, pharmacokinetics (PK) and pharmacodynamics of MIV-711. Subjects were randomized into 3 groups using a computer-generated pseudo-random permutation procedure. Each group consisted of 9 subjects with at least 3 subjects of each gender per group and subjects participated in 1–2 treatment periods. There was a minimum of 10 days between dose escalations and a minimum of 20 days between dosing occasions for individual subjects. For each subsequent dosing occasion, the decision to escalate the dose to the next level was taken after a thorough review of the safety, tolerability and PK data. In each treatment period, 7 subjects received MIV-711 and 2 received placebo (comprising of 1 subject of each gender). Dosing occurred on the morning of Day 1 following an overnight fast and subjects were kept in the fasted state until approximately 4.5 h after dosing. MIV-711 was given as a combination of 10 or 40 mg hard gelatin capsules, while placebo was given in similar capsules of identical appearance.
Blood samples were collected at pre-dose, 4, 8, 24 and 48 h post-dose and processed into serum for the measurement of CTX-I concentrations.
The quantification of CTX-I in monkey plasma samples and human serum samples was performed using a commercially available kit (Serum CrossLaps ELISA, IDS Nordic, Herlev, Denmark). The levels of CTX-I in monkey urine samples were measured using a commercially available kit (Urine BETA CrossLaps ELISA, IDS Nordic). The quantification of NTX-I in monkey samples was performed using a commercially available kit (Osteomark NTx Urine, Wampole Laboratories, Inc, Princeton, USA). Urinary levels of CTX-II in monkey samples were measured using a commercially available kit (Urine CrossLaps EIA, IDS Nordic). The concentrations of biomarkers in the urine samples were corrected for creatinine concentrations. The creatinine levels in urine were determined at Swedish University of Agricultural Sciences, using the enzymatic assay (cat no. 8L24-01) on the Abbott system Architect c4000.

[1] abbreviates: 30 µmol/kg p.o. once daily for 5 days, creatinine-corrected.
Where [2] appears, read: single dose 30 µmol/kg p.o. (Day 1).

T1 sequence (P09668 98-335): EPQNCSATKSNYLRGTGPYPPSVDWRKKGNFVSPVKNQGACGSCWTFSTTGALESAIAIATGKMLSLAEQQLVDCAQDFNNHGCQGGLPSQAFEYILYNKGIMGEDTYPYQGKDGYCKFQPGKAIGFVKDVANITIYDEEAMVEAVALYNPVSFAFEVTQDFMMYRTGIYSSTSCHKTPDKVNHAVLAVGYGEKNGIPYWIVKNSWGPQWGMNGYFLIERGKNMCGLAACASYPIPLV

One may read the Ki as a dissociation constant, usually derived from enzyme kinetics or from competition with a known ligand. As to `C#C[C@@H]1CN(C(=O)[C@H](CC(C)C)NC(=O)c2ccc(-c3nc(N4CCN(C)CC4)sc3F)cc2)[C@@H]2C(=O)CO[C@H]12` [MIV-711], the Ki is over 10000 nM on human cathepsin H, 15700 nM on human cathepsin S, 1.5 nM on dog cathepsin K and 9.8 nM at guinea pig cathepsin K. In addition, in the assay with urine CTX-I (setting [1]), the “Reduction of urinary CTX-I compared to vehicle” value is given as 93%. For the same compound, the “Effect on urinary CTX-I compared to vehicle” value in the assay with urine CTX-I (setting [2]) is “immediately reduced”. The “Reduction of urinary NTX-I compared to vehicle” value in the assay on urine NTX-I (setting [1]) was determined as 71%. Besides, in the assay on urine NTX-I (setting [2]), the “Effect on urinary NTX-I compared to vehicle” value is “immediately reduced”. In addition, the “Inhibition of serum CTX-I versus baseline at 24 h” value worked out at 20% in the assay on serum CTX-I (20 mg single dose) and 79% in the assay with serum CTX-I (600 mg single dose). In addition, the “Reduction of CTX-I at 24 h post-dose” value with serum CTX-I (100 mg single dose) came out at 54%. The “Exposure required for 50% reduction of CTX-I at 24 h post dose” value in the assay on serum CTX-I (AUC0–24h) came out at 1.3 µmol/L/h.
